Reference: ChEMBL document CHEMBL6178002, “Identification of a RANKL/TNF-α Dual-Inhibitor as a Potential Disease-Modifying Agent for the Treatment of Knee Osteoarthritis” (J Med Chem, 2025)
Calls of active or inactive are those of the source. The rule behind the calls is not given here.

Key:
Rattus norvegicus [1] = species on record: Rattus norvegicus; test: Anti-inflammatory activity in male Sprague-Dawley rat model of ACLT-induced osteoarthritis assessed as increase in BV/TV level at 50 to 100 ug, IART treated weekly once for 8 weeks by micro-CT analysis; assay type: functional, organism-based; details: dose 50-100 µg
Bone marrow macrophage [2] = test: Inhibition of RANKL/M-CSF-induced osteoclastogenesis in bone marrow macrophage cells (unknown origin) assessed as decrease in MMP-9 level incubated for 48 hrs by Western blot analysis; assay type: functional, cell-based; details: dose <= 2.5 µM
[3] = Volume of distribution at steady state in male Sprague-Dawley rat at 1 mg/kg, iv measured for 0.25 to 24 hrs; assay type: ADME, organism-based; details: in vivo, time 0.25-24 hrs, read-out: Vdss
[4] = Half life in male Sprague-Dawley rat at 1 mg/kg, iv measured for 0.25 to 24 hrs; assay type: ADME, organism-based; details: in vivo, time 0.25-24 hrs
Bone marrow macrophage [5] = test: Inhibition of RANKL/M-CSF-induced osteoclastogenesis in bone marrow macrophage cells (unknown origin) assessed as decrease in TRAP level at 1 uM by Western blot analysis; assay type: functional, cell-based; details: time <= 5.0 day
[6] = Half life in male Sprague-Dawley rat at 10 mg/kg, po measured for 0.25 to 24 hrs; assay type: ADME, organism-based; details: in vivo, time 0.25-24 hrs
Primary chondrocyte = test: Anti-inflammatory activity in IL-1beta-treated C57/BL6 mouse primary chondrocytes assessed as decrease in MMP-9 mRNA level at 10 uM incubated for 24 hrs by RT-qPCR analysis; assay type: functional, cell-based
Bone marrow cell [7] = test: Inhibition of RANKL/M-CSF-induced osteoclastogenesis in male C57/BL6 mouse bone marrow cells at 1 uM by TRAP staining based analysis; assay type: functional; details: time 1-7 day
Bone marrow macrophage [8] = test: Inhibition of RANKL/M-CSF-induced osteoclastogenesis in bone marrow macrophage cells (unknown origin) assessed as decrease in c-Fos level incubated for 48 hrs by Western blot analysis; assay type: functional, cell-based; details: dose <= 2.5 µM
Bone marrow macrophage [9] = test: Inhibition of RANKL/M-CSF-induced osteoclastogenesis in bone marrow macrophage cells (unknown origin) assessed as decrease in TRAP mRNA level at 1 uM by RT-qPCR analysis; assay type: functional, cell-based; details: time <= 5.0 day
Rattus norvegicus [10] = species on record: Rattus norvegicus; test: Anti-inflammatory activity in male Sprague-Dawley rat model of ACLT-induced osteoarthritis assessed as increase in Tb.N level at 50 to 100 ug, IART treated weekly once for 8 weeks by micro-CT analysis; assay type: functional, organism-based; details: dose 50-100 µg
RAW264.7 [11] = test: Anti-inflammatory activity in LPS-stimulated mouse RAW264.7 cells assessed as decrease in IL-18 level at 10 uM preincubated for 24 hrs followed by LPS addition measured after 2 hrs by RT-qPCR analysis; assay type: functional, cell-based; details: time 26.0 hrs
Bone marrow macrophage [12] = test: Inhibition of RANKL/M-CSF-induced osteoclastogenesis in bone marrow macrophage cells (unknown origin) assessed as decrease in NFATC1 level at 1 uM by Western blot analysis; assay type: functional, cell-based; details: time <= 5.0 day
Bone marrow macrophage [13] = test: Inhibition of RANKL/M-CSF-induced osteoclastogenesis in bone marrow macrophage cells (unknown origin) assessed as decrease in c-Fos level at 1 uM by Western blot analysis; assay type: functional, cell-based; details: time <= 5.0 day
Bone marrow macrophage [14] = test: Inhibition of RANKL/M-CSF-induced osteoclastogenesis in bone marrow macrophage cells (unknown origin) assessed as decrease in NFATC1 level incubated for 48 hrs by Western blot analysis; assay type: functional, cell-based; details: dose <= 2.5 µM
[15] = Cytotoxicity against bone marrow macrophage cells (unknown origin) assessed as cell viability at 10 uM incubated for 24 hrs by CCK8 assay relative to control; assay type: toxicity, cell-based; details: read-out: Activity
Bone marrow cell [16] = test: Inhibition of RANKL/M-CSF-induced osteoclastogenesis in male C57/BL6 mouse bone marrow cells assessed as decrease in F-actin loop formation incubated for 5 to 7 days by rhodamine phalloidin/DAPI staining based analysis; assay type: functional; details: dose <= 1.0 µM, time 5-7 day
Bone marrow macrophage [17] = test: Inhibition of RANKL/M-CSF-induced osteoclastogenesis in bone marrow macrophage cells (unknown origin) assessed as decrease in cathepsin K mRNA level incubated for 48 hrs by RT-qPCR analysis; assay type: functional, cell-based; details: dose <= 5.0 µM
Bone marrow macrophage [18] = test: Inhibition of RANKL/M-CSF-induced osteoclastogenesis in bone marrow macrophage cells (unknown origin) assessed as decrease in cathepsin K level incubated for 48 hrs by Western blot analysis; assay type: functional, cell-based; details: dose <= 2.5 µM
[19] = AUC (0 to t) in male Sprague-Dawley rat at 1 mg/kg, iv measured for 0.25 to 24 hrs; assay type: ADME, organism-based; details: in vivo, time 0.25-24 hrs
Bone marrow macrophage [20] = test: Inhibition of RANKL/M-CSF-induced osteoclastogenesis in bone marrow macrophage cells (unknown origin) assessed as decrease in c-Fos mRNA level at 1 uM by RT-qPCR analysis; assay type: functional, cell-based; details: time <= 5.0 day
Rattus norvegicus [21] = species on record: Rattus norvegicus; test: Anti-inflammatory activity in male Sprague-Dawley rat model of ACLT-induced osteoarthritis assessed as increase in BMD level at 50 to 100 ug, IART treated weekly once for 8 weeks by micro-CT analysis; assay type: functional, organism-based; details: dose 50-100 µg
RAW264.7 [22] = test: Anti-inflammatory activity in LPS-stimulated mouse RAW264.7 cells assessed as decrease in IL-1beta level at 10 uM preincubated for 24 hrs followed by LPS addition measured after 2 hrs by RT-qPCR analysis; assay type: functional, cell-based; details: time 26.0 hrs

Cc1cccc(C)c1NC(=O)[C@@H]1Cc2c([nH]c3ccccc23)C2(CN(c3ccccc3)C2)N1
Activity (Rattus norvegicus [1]): Active | inhibition (Bone marrow macrophage [2]): Dose-dependent-effect | Vd [3]: 4.91 L/kg | half-life [4]: 1.27 h | inhibition (Bone marrow macrophage [5]): Time-dependent-effect | half-life [6]: 5.07 h | Activity (Primary chondrocyte): Active | inhibition (Bone marrow cell [7]): Time-dependent-effect | inhibition (Bone marrow macrophage [8]): Dose-dependent-effect | inhibition (Bone marrow macrophage [9]): Time-dependent-effect | Activity (Rattus norvegicus [10]): Active | Activity (RAW264.7 [11]): Active | inhibition (Bone marrow macrophage [12]): Time-dependent-effect | inhibition (Bone marrow macrophage [13]): Time-dependent-effect | inhibition (Bone marrow macrophage [14]): Dose-dependent-effect | viability at 24 h, 10 µM [15]: 110% | inhibition (Bone marrow cell [16]): Dose-dependent-effect | inhibition (Bone marrow macrophage [17]): Dose-dependent-effect | inhibition (Bone marrow macrophage [18]): Dose-dependent-effect | AUC(0-t) [19]: 227 ng·h/mL | inhibition (Bone marrow macrophage [20]): Time-dependent-effect | Activity (Rattus norvegicus [21]): Active | Activity (RAW264.7 [22]): Active
